Earlier results in PMC11705955, “Lack of activity of HIV-1 integrase strand-transfer inhibitors on recombinase activating gene (RAG) activity at clinically relevant concentrations” (Microbiology Spectrum, 2024).

What was measured:
[1] = target: recombinant HIV-1 integrase; details: read-out: Target IC50 for integrase; cited from earlier work
[2] = system: immunological competence; parameters: method as in PMID 22790968; details: TCR Vβ usage by flow cytometry and T cell-dependent antibody response; cited from earlier work
[3] = target: RAG1; details: biolayer interferometry; read-out: Dissociation constant from RAG1; cited from earlier work
[4] = system: T or B cells; details: cited from earlier work
[5] = system: murine RAG1/RAG2; parameters: method as in PMID 11756686; details: read-out: IC50 on RAG1/RAG2 in vitro; cited from earlier work

SMILES: O=C(NCc1c(F)cc(F)cc1F)c1cn2c(c(O)c1=O)C(=O)N1[C@H]3CC[C@H](C3)O[C@@H]1C2 [BIC, bictegravir]
- IC50 [1]: 0.0075 ± 0.0003 µM

SMILES: C[C@H]1CO[C@@H]2Cn3cc(C(=O)NCc4ccc(F)cc4F)c(=O)c(O)c3C(=O)N12 [CAB, cabotegravir]
- IC50 [1]: 0.003 µM

SMILES: C[C@@H]1CCO[C@H]2Cn3cc(C(=O)NCc4ccc(F)cc4F)c(=O)c(O)c3C(=O)N12 [DTG, dolutegravir]
- Impact on immunological competence in juvenile rats [2]: no impact on immunological competence

SMILES: COc1cc2c(cc1Cc1cccc(Cl)c1F)c(=O)c(C(=O)O)cn2[C@H](CO)C(C)C [EVG, elvitegravir]
- Kd [3]: 32.5 µM
- Effect on T or B cells in treated mice [4]: did not show a large decrease in T or B cells

SMILES: O=C(/C=C(\O)c1nnn[nH]1)c1c[nH]c2ccc(Cl)cc12 [p8, 5-CITEP]
- IC50 [5]: 200 µM
